From US20250230193A1, “CYCLIC COMPOUND HAVING SELECTIVE KRAS INHIBITORY EFFECT ON HRAS AND NRAS” (CHUGAI SEIYAKU KABUSHIKI KAISHA, priority 2022, published 2025)

Experiments:
[1] = biological target: GDP-bound NRAS wild-type protein (Homo sapiens, UniProt P01111); assay: Binding to NRAS by surface plasmon resonance (SPR), Single Cycle Kinetics; details: SPR; KD ratio class
[2] = biological target: GDP-bound HRAS wild-type protein (Homo sapiens, UniProt P01112); assay: Binding to HRAS by surface plasmon resonance (SPR), Single Cycle Kinetics; details: SPR; KD ratio class
GDP-bound HRAS wild-type protein, sequence (P01112 whole entry): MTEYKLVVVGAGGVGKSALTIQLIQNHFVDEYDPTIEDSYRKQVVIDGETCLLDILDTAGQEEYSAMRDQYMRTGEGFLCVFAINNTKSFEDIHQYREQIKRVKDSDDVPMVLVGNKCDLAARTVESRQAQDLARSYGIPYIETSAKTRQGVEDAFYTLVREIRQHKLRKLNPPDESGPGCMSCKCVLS

[3] = system: human lung cancer strain NCI-H441; assay: cells; details: NCI-H441, 96 h, read-out: NCI-H441 IC50 (nM)

GDP-bound NRAS wild-type protein, sequence (P01111 whole entry): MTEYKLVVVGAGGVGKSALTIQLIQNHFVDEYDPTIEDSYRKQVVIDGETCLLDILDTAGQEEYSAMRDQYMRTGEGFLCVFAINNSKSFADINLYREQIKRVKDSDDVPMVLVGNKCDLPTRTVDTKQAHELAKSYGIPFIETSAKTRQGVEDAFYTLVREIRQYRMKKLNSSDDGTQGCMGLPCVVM

SMILES | NRAS/KRAS (ratio of KD value for GDP-bound NRAS wild-type protein to KD value for KRAS) [1] | HRAS/KRAS (ratio of KD value for GDP-bound HRAS wild-type protein to KD value for KRAS) [2] | IC50 [3]
CCO[C@@H]1C[C@H]2C(=O)NC3(CCC3)C(=O)N(C)[C@@H](C3CCCC3)C(=O)N(C)[C@H](C)CC(=O)N(C)[C@@H](CC(C)C)C(=O)N[C@@H]([C@@H](C)CC)C(=O)N(C)CC(=O)N(C)[C@H]3C/C=C\CCN(C3=O)[C@@H](Cc3ccc(C)cc3)C(=O)N(C)CC(=O)N[C@@H](CCc3cc(F)c(C(F)(F)F)c(F)c3)C(=O)N2C1 [PP1417] | B (a compound having 3 or more and less than 10 is denoted as B) | B (a compound having 3 or more and less than 10 is denoted as B) | 18.4 nM
CCO[C@@H]1C[C@H]2C(=O)NC3(CCC3)C(=O)N(C)[C@@H](C3CCCC3)C(=O)N(C)[C@H](C(=O)N3CCOCC3)CC(=O)N(C)[C@@H](CC3CCCCC3)C(=O)N[C@@H]([C@@H](C)CC)C(=O)N(C)CC(=O)N(C)[C@H]3C/C=C\CCN(C3=O)[C@@H](Cc3ccc(C(F)(F)F)cc3)C(=O)N(C)CC(=O)N[C@@H](CCc3cc(F)c(C(F)(F)F)c(F)c3)C(=O)N2C1 [PP1418] | AA (a compound having 20 or more is denoted as AA) | A (a compound having 10 or more and less than 20 is denoted as A) | 29.9 nM
CCO[C@@H]1C[C@H]2C(=O)NC3(CCC3)C(=O)N(C)[C@@H](C3CCCC3)C(=O)N(C)[C@H](C(=O)N3CCCC3)CC(=O)N(C)[C@@H](CC3CCCCC3)C(=O)N[C@@H]([C@@H](C)CC)C(=O)N(C)CC(=O)N(C)[C@H]3C/C=C\CCN(C3=O)[C@@H](Cc3ccc(C(F)(F)F)cc3)C(=O)N(C)CC(=O)N[C@@H](CCc3cc(F)c(C(F)(F)F)c(F)c3)C(=O)N2C1 [PP1419] | AA (a compound having 20 or more is denoted as AA) | A (a compound having 10 or more and less than 20 is denoted as A) | 40.4 nM
CCO[C@@H]1C[C@H]2C(=O)NC3(CCC3)C(=O)N(C)[C@@H](C3CCCC3)C(=O)N(C)[C@H](C(=O)N3CCOCC3)CC(=O)N(C)[C@@H](CC3CCCCC3)C(=O)N[C@@H]([C@@H](C)CC)C(=O)N(C)CC(=O)N(C)[C@H]3C/C=C\CCN(C3=O)[C@@H](Cc3ccc(C)cc3)C(=O)N(C)CC(=O)N[C@@H](CCc3cc(F)c(C(F)(F)F)c(F)c3)C(=O)N2C1 [PP1420] | A (a compound having 10 or more and less than 20 is denoted as A) | A (a compound having 10 or more and less than 20 is denoted as A) | 31.4 nM
CCO[C@@H]1C[C@H]2C(=O)NC3(CCC3)C(=O)N(C)[C@@H](C3CCCC3)C(=O)N(C)[C@H](C(=O)N3CCOCC3)CC(=O)N(C)[C@@H](CC3CCC3)C(=O)N[C@@H]([C@@H](C)CC)C(=O)N(C)CC(=O)N(C)[C@H]3C/C=C\CCN(C3=O)[C@@H](Cc3ccc(C(F)(F)F)cc3)C(=O)N(C)CC(=O)N[C@@H](CCc3cc(F)c(C(F)(F)F)c(F)c3)C(=O)N2C1 [PP1422] | AA (a compound having 20 or more is denoted as AA) | A (a compound having 10 or more and less than 20 is denoted as A) | 14.1 nM
CCO[C@@H]1C[C@H]2C(=O)NC3(CCC3)C(=O)N(C)[C@@H](C3CCCC3)C(=O)N(C)[C@H](C(=O)N3CCOCC3)CC(=O)N(C)[C@@H](CC3CCC3)C(=O)N[C@@H]([C@@H](C)CC)C(=O)N(C)CC(=O)N(C)[C@H]3C/C=C\CCN(C3=O)[C@@H](Cc3ccc(C)cc3)C(=O)N(C)CC(=O)N[C@@H](CCc3cc(F)c(C(F)(F)F)c(F)c3)C(=O)N2C1 [PP1424] | A (a compound having 10 or more and less than 20 is denoted as A) | A (a compound having 10 or more and less than 20 is denoted as A) | 26.3 nM
CCO[C@@H]1C[C@H]2C(=O)NC3(CCC3)C(=O)N(C)[C@@H](C3CCCC3)C(=O)N(C)[C@H](C(=O)N3CCCC3)CC(=O)N(C)[C@@H](CC3CCC3)C(=O)N[C@@H]([C@@H](C)CC)C(=O)N(C)CC(=O)N(C)[C@H]3C/C=C\CCN(C3=O)[C@@H](Cc3ccc(C)cc3)C(=O)N(C)CC(=O)N[C@@H](CCc3cc(F)c(C(F)(F)F)c(F)c3)C(=O)N2C1 [PP1425] | A (a compound having 10 or more and less than 20 is denoted as A) | B (a compound having 3 or more and less than 10 is denoted as B) | 20.2 nM
CCO[C@@H]1C[C@H]2C(=O)NC3(CCC3)C(=O)N(C)[C@@H](C3CCCC3)C(=O)N(C)[C@H](C(=O)N(C)C)CC(=O)N(C)[C@@H](CC3CC3)C(=O)N[C@@H]([C@@H](C)CC)C(=O)N(C)CC(=O)N(C)[C@H]3C/C=C\CCN(C3=O)[C@@H](Cc3ccc(F)cc3)C(=O)N(C)CC(=O)N[C@@H](CCc3ccc4sccc4c3)C(=O)N2C1 [PP1426] | A (a compound having 10 or more and less than 20 is denoted as A) | B (a compound having 3 or more and less than 10 is denoted as B) | 475 nM
CCO[C@@H]1C[C@H]2C(=O)NC3(CCC3)C(=O)N(C)[C@@H](C3CCCC3)C(=O)N(C)[C@H](C(=O)N(C)C)CC(=O)N(C)[C@@H](CC(C)C)C(=O)N[C@@H]([C@@H](C)CC)C(=O)N(C)CC(=O)N(C)[C@H]3C/C=C\CCN(C3=O)[C@@H](Cc3ccc(F)cc3)C(=O)N(C)CC(=O)N[C@@H](CCc3ccc4sccc4c3)C(=O)N2C1 [PP1427] | A (a compound having 10 or more and less than 20 is denoted as A) | B (a compound having 3 or more and less than 10 is denoted as B) | 465 nM
CCO[C@@H]1C[C@H]2C(=O)NC3(CCC3)C(=O)N(C)[C@@H](C(CC)CC)C(=O)N(C)[C@H](C(=O)N(C)C)CC(=O)N(C)[C@@H](CC3CC3)C(=O)N[C@@H]([C@@H](C)CC)C(=O)N(C)CC(=O)N(C)[C@H]3C/C=C\CCN(C3=O)[C@@H](CC3CCCCC3)C(=O)N(C)CC(=O)N[C@@H](CCc3cc(F)c(C(F)(F)F)c(F)c3)C(=O)N2C1 [PP1428] | AA (a compound having 20 or more is denoted as AA) | A (a compound having 10 or more and less than 20 is denoted as A) | 38.8 nM
CCO[C@@H]1C[C@H]2C(=O)NC3(CCC3)C(=O)N(C)[C@@H](C(CC)CC)C(=O)N(C)[C@H](C(=O)N(C)C)CC(=O)N(C)[C@@H](CC3CC3)C(=O)N[C@@H]([C@@H](C)CC)C(=O)N(C)CC(=O)N(C)[C@H]3C/C=C\CCN(C3=O)[C@@H](CC3CCC(F)(F)CC3)C(=O)N(C)CC(=O)N[C@@H](CCc3cc(F)c(C(F)(F)F)c(F)c3)C(=O)N2C1 [PP1429] | AA (a compound having 20 or more is denoted as AA) | A (a compound having 10 or more and less than 20 is denoted as A) | 38.7 nM
CCO[C@@H]1C[C@H]2C(=O)NC3(CCC3)C(=O)N(C)[C@@H](C(CC)CC)C(=O)N(C)[C@H](C(=O)N(C)C)CC(=O)N(C)[C@@H](CC3CCCC3)C(=O)N[C@@H]([C@@H](C)CC)C(=O)N(C)CC(=O)N(C)[C@H]3C/C=C\CCN(C3=O)[C@@H](CC3CCCCC3)C(=O)N(C)CC(=O)N[C@@H](CCc3cc(F)c(C(F)(F)F)c(F)c3)C(=O)N2C1 [PP1430] | A (a compound having 10 or more and less than 20 is denoted as A) | A (a compound having 10 or more and less than 20 is denoted as A) | 70.4 nM
CCO[C@@H]1C[C@H]2C(=O)NC3(CCC3)C(=O)N(C)[C@@H](C(CC)CC)C(=O)N(C)[C@H](C(=O)N(C)C)CC(=O)N(C)[C@@H](CC3CCCC3)C(=O)N[C@@H]([C@@H](C)CC)C(=O)N(C)CC(=O)N(C)[C@H]3C/C=C\CCN(C3=O)[C@@H](CC3CCC(F)(F)CC3)C(=O)N(C)CC(=O)N[C@@H](CCc3cc(F)c(C(F)(F)F)c(F)c3)C(=O)N2C1 [PP1431] | AA (a compound having 20 or more is denoted as AA) | A (a compound having 10 or more and less than 20 is denoted as A) | 41.2 nM
CCO[C@@H]1C[C@H]2C(=O)NC3(CCC3)C(=O)N(C)[C@@H](C(CC)CC)C(=O)N(C)[C@H](C(=O)N(C)C)CC(=O)N(C)[C@@H](CC(C)C)C(=O)N[C@@H]([C@@H](C)CC)C(=O)N(C)CC(=O)N(C)[C@H]3C/C=C\CCN(C3=O)[C@@H](CC3CCCCC3)C(=O)N(C)CC(=O)N[C@@H](CCc3cc(F)c(C(F)(F)F)c(F)c3)C(=O)N2C1 [PP1432] | AA (a compound having 20 or more is denoted as AA) | A (a compound having 10 or more and less than 20 is denoted as A) | 51.3 nM
